Data as given in PubChem BioAssay AID608 (Sanford-Burnham Center for Chemical Genomics, 2007).
The source made the active and inactive calls. How the calls were made is not given here.

target: Peptidyl-prolyl cis-trans isomerase FKBP1A (Homo sapiens) (UniProt P62942); assay: FKBP12 binders, biophysical, NMR detection (AID 608); conditions: NMR binding, purified FKBP12
Sequence (P62942 whole entry, looked up): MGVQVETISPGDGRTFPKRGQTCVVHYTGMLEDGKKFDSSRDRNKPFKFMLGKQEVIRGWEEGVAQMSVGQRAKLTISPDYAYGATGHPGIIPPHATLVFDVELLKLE

| Compound | Kd |
| --- | --- |
| Nc1cccc(CC(=S)N2CCOCC2)c1 | > 4 mM (inactive) |
| Cc1ccc(-c2nc(N)n(C(=O)c3cccnc3)n2)cc1 | > 4 mM (inactive) |
| CC1=NN2C(=N)CC(=O)N=C2S1 | > 4 mM (inactive) |
| Cn1cc(Cl)c(C(=O)NC2CCCC2)n1 | > 4 mM (inactive) |
| Cc1ncc(C(=O)O)c(-c2ccccc2)n1 | > 4 mM (inactive) |
| COC(=O)c1cc(-c2c[nH]c3ccccc23)n[nH]1 | > 4 mM (inactive) |
| O=C(O)c1ccc(N2CCOCC2)cc1 | > 4 mM (inactive) |
| CC1(C)C(=O)N(O)C(C)(C)C(=O)N1O | > 4 mM (inactive) |
| CCCNC(=O)c1cnc2n(c1=O)CCS2 | > 4 mM (inactive) |
| Oc1ccccc1N1CCOCC1 | > 4 mM (inactive) |
| OCc1nccn1Cc1ccccc1 | > 4 mM (inactive) |
| O=C(O)c1ccc2[nH]c3c(c2c1)CSCC3 | > 4 mM (inactive) |
| Cc1nnc(-n2cnc3ccccc32)c2ccccc12 | > 4 mM (inactive) |
| CNCc1ccccc1 | > 4 mM (inactive) |
| Nc1nc(-c2cccnc2)nn1C(=O)Cc1ccccc1 | > 4 mM (inactive) |
| CC1=NN(C(N)=S)C(C)(C)C1 | > 4 mM (inactive) |
| CNC(=O)Cn1c(=O)n(C)c2ccccc21 | > 4 mM (inactive) |
| O=C(CSc1ncccn1)Nc1nccs1 | > 4 mM (inactive) |
| CC(C)(C)NC(=O)N1CCC(C(N)=O)CC1 | > 4 mM (inactive) |
| Nc1cccc(F)c1-c1ncon1 | > 4 mM (inactive) |
| O=C1CS/C(=N/N=C/c2cccs2)N1 | > 4 mM (inactive) |

| Compound | Kd |
| --- | --- |
| COc1ccc(-c2coc3cc(O)ccc3c2=O)c(OC)c1 | > 4 mM (inactive) |
| CC(=O)Nc1ccc2c(c1)C(=O)N(C1CCCCC1)C2=O | > 4 mM (inactive) |
| NC(=O)CSc1ccc(-c2ccccc2)nn1 | > 4 mM (inactive) |
| Cn1c(CO)nc2ccccc21 | > 4 mM (inactive) |
| O=C1C2C3C=CC(C3)C2C(=O)N1CCCO (stereo unspecified) | > 4 mM (inactive) |
| Cc1ccc(NS(=O)(=O)N2CCCCC2)cc1Cl | inactive |
| O=C(O)CCc1nc2ccccc2[nH]c1=O | > 4 mM (inactive) |
| O=C1C2CC=CCC2C(=O)N1c1cccc(O)c1 (stereo unspecified) | > 4 mM (inactive) |
| O=C1NC(=Nc2ccccc2)S/C1=C/c1cccnc1 | > 4 mM (inactive) |
| O=C(Nc1cnccn1)c1cccnc1 | > 4 mM (inactive) |
| Cn1cc(C(=O)N/N=C/c2ccccc2)ccc1=O | > 4 mM (inactive) |
| O=C1CCCC2C3CC(CN12)[C@@H]1CCCCN1C3 (stereo partly specified) | > 4 mM (inactive) |
| NCc1cn2ccccc2n1 | > 4 mM (inactive) |
| CCn1nnc2c(NCc3ccccn3)ncnc21 | > 4 mM (inactive) |
| Cc1cc(OC(=O)c2ccco2)c([N+](=O)[O-])c(=O)[nH]1 | > 4 mM (inactive) |
| OCCOc1ccc(C2=NCCO2)cc1 | > 4 mM (inactive) |
| Cc1ccccc1-n1c(-c2cccnc2)n[nH]c1=S | > 4 mM (inactive) |
| CC(=O)c1cc2c(cc1O)OC(C)(C)C=C2 | > 4 mM (inactive) |
| O=C(O)C1CNc2ccccc2O1 (stereo unspecified) | > 4 mM (inactive) |
| CC1CN(C(=O)c2sc3ccccc3c2Cl)CC(C)O1 (stereo unspecified) | inactive |
| O=c1c[n+]([O-])c2ccccc2n1OCc1ccccn1 | > 4 mM (inactive) |

| Compound | Kd |
| --- | --- |
| NCCN=C1NS(=O)(=O)c2ccccc21 | > 4 mM (inactive) |
| O=[N+]([O-])c1c[n+]([O-])n(-c2ccccc2)n1 | > 4 mM (inactive) |
| O=C(Nc1cnccn1)c1cccc(C(F)(F)F)c1 | > 4 mM (inactive) |
| CC1(C)C2CC(=O)[C@]3(C)C(CC[C@@]4(C)[C@H](c5ccoc5)OC(=O)[C@H]5O[C@]543)[C@@]2(C)C(=O)C[C@H]1O (stereo partly specified) | > 4 mM (inactive) |
| Cc1nc2c(=O)[nH]c3ccccc3c2o1 | > 4 mM (inactive) |
| CC(=O)Oc1c(C)c(C)c2c(c1C)CCC(C)(CCCC(C)CCCC(C)CCCC(C)C)O2 (stereo unspecified) | > 4 mM (inactive) |
| Cc1ccc(NC(=O)c2ccccc2)s1 | > 4 mM (inactive) |
| Cc1nc2ccccc2n1S(=O)(=O)N1CCOCC1 | inactive |
| CC1=C(C(N)=O)C(c2cccs2)C(C(N)=O)=C(C)N1 | > 4 mM (inactive) |
| NC(=O)c1ccc(-c2ccccn2)s1 | > 4 mM (inactive) |
| Nc1nsc(-c2ccccc2)n1 | > 4 mM (inactive) |
| COc1cc(O)c(C(C)=O)c(OC)c1 | > 4 mM (inactive) |
| NC(=O)C1CCN(C(=O)CN2CCc3ccccc32)CC1 | > 4 mM (inactive) |
| Cc1nc(-c2cccc(-c3noc(C)n3)c2)no1 | > 4 mM (inactive) |
| COC(=O)c1cc2cc(N)ccc2s1 | > 4 mM (inactive) |
| O=C(O)CCn1cncn1 | > 4 mM (inactive) |
| O=C(Nc1nncs1)c1c(F)c(F)c(F)c(F)c1F | > 4 mM (inactive) |
| CC(C)CC(=O)NC1CCSC1=O (stereo unspecified) | > 4 mM (inactive) |
| O=C(O)C1COc2ccccc2O1 (stereo unspecified) | > 4 mM (inactive) |
